# From the supplement of paper PMC11616607
# System: OVCAR5
# Assay: drug sensitivity score (DSS) from 5-point dose-response viability curve (DSS (area-under-curve based score)); higher = more sensitive (stronger growth inhibition or killing); extreme values may be limits of the assay
# Conditions: exposure time: 72 h; concentration range: 5 concentrations over 10,000-fold range
# Method in brief: (§1)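 Each cell line and drug received a drug sensitivity score from Breeze software, where higher means more sensitive. Zero stands for no response. Scores came from CellTiter-Glo viability readings of ovarian cancer and normal ovarian cells, 1,500 per well in 384-well plates, after 3 days at 37°C, 5% CO2 with drugs at five concentrations over a 10,000-fold range.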
row,SMILES,drug sensitivity score
1,CC(C)(C)C[C@@H]1N[C@@H](C(=O)N[C@H]2CC[C@H](O)CC2)[C@H](c2cccc(Cl)c2F)[C@]12C(=O)Nc1cc(Cl)ccc12,0.4
2,CC(C)Oc1ccc(C(=O)N[C@H](CNC(=O)CN(C)C)Cc2ccc(-c3cn4cccc([C@H](C)O)c4n3)cc2)cc1Cl,16.3
3,CC[C@@H]1[C@H](F)C(=O)N[C@@H]1COc1nccc2cc(C(N)=O)c(OC)cc12,0.6
4,CCc1cncnc1N1CCN(Cc2nc3ccc(C(F)(F)F)cc3[nH]2)CC1,2.8
5,CCn1c(-c2nonc2N)nc2cnc(Oc3cccc(NC(=O)c4ccc(OCCN5CCOCC5)cc4)c3)cc21,2.2
6,CN(C)CC#Cc1ccc(OCCCc2sc(N3CCc4cccc(C(=O)Nc5nc6ccccc6s5)c4C3)nc2C(=O)O)c(F)c1,4.1
7,CN(c1ncccc1CNc1nc(Nc2ccc3c(c2)CC(=O)N3)ncc1C(F)(F)F)S(C)(=O)=O,6.1
8,CNC(=O)c1ccc(C)c(-n2c(C)cc(OCc3ccc(F)cc3F)c(Br)c2=O)c1,0.6
9,CNS(=O)(=O)Nc1nccc(Cc2c(C)c3ccc(Oc4ncccn4)cc3oc2=O)c1F,0
10,CNc1ncc2cc(-c3cc(NC(=O)NCCC(C)(C)C)c(F)cc3C)c(C)nc2n1,11.3
11,CO[C@@H](C)Cn1c(=O)n(C)c2cnc3ccc(-c4cncc(C(C)(C)O)c4)cc3c21,8.7
12,COc1ccc(Cn2ccc3ccc(C(=O)NO)cc32)cc1,0.7
13,C[C@@H](Oc1ccc2[nH]nc(/C=C/c3cnn(CCO)c3)c2c1)c1c(Cl)cncc1Cl,5.5
14,C[C@@H]1CN(CC(=O)Nc2ccc3c(c2)Cc2cccc(-c4cc(=O)cc(N5CCOCC5)o4)c2S3)C[C@H](C)O1,1.6
15,C[C@H]1C[C@@H](n2c(Nc3ccc(OC(F)(F)F)cc3)nc3cc(CCC(=O)O)ccc32)CC(C)(C)C1,0
16,Cc1c(-c2c(-c3ccc(F)o3)sc3ncnc(O[C@H](Cc4ccccc4OCc4ccnn4CC(F)(F)F)C(=O)O)c23)ccc(OCCN2CCN(C)CC2)c1Cl,0.1

row,SMILES,drug sensitivity score
1,Cc1c(Cn2c(C)nc3c(C(=O)O)cc(N4CCOCC4)cc32)cccc1C(F)(F)F,0
2,Cc1ccc(C(=O)N(CCCN)[C@@H](c2oc3cc(Cl)ccc3c(=O)c2Cc2ccccc2)C(C)C)cc1,4.5
3,Cc1cccc(CC(=O)N2CCc3c2ccc(-c2cn(C)c4ncnc(N)c24)c3F)n1,0
4,Cc1nc(Nc2n[nH]c3c2CN(C(=O)N[C@H](CN(C)C)c2ccccc2)C3(C)C)c2sccc2n1,14.9
5,Cc1ncc(Cl)cc1NCc1ccc(C(=O)N[C@@H](CC2CCCC2)C(=O)NC2CC2)s1,0
6,Cn1cc(-c2ccc(F)c(C(F)(F)F)c2)nc1C1CCN(c2ncnc3[nH]ncc23)CC1,0
7,Cn1cc(C2=Nc3cc(NC(=O)C(N)C4CCCCC4)cc4c3C2=CNNC4=O)cn1 (stereo unspecified),6.4
8,N#Cc1ccc(COC[C@H]2O[C@@H](n3c(NCc4ccc(Cl)c(Cl)c4)nc4c(N)ncnc43)[C@H](O)[C@@H]2O)cc1,4.4
9,NCC(=O)Nc1ccc(-n2nc(C(F)(F)F)cc2-c2ccc3c(ccc4ccccc43)c2)cc1,0
10,NC[C@@](O)(c1ccc(Cl)cc1)c1ccc(-c2cn[nH]c2)cc1,0.7
11,Nc1nccc(-c2c(-c3ccc(F)cc3)ncn2C2CCCCC2)n1,1.9
12,Nc1ncnc2c1c(COc1cccc(Cl)c1)nn2C1CCOCC1,0.6
13,O=C(NOC[C@H](O)CO)c1ccc(F)c(F)c1Nc1ccc(I)cc1F,9.7
14,O=C(Nc1ccc2[nH]nc(-c3ccncc3)c2c1)[C@@H]1CCN(CC(=O)N2CCN(c3ccc(-c4ncccn4)cc3)CC2)C1,13.4
15,O=C(O)c1ccc(-c2c[nH]c3ncc(-c4ccccc4)cc23)cc1C1CCCC1,1.4
16,O=C(O)c1ccc(CN2CCC(CN[C@@H]3C[C@H]3c3ccccc3)CC2)cc1,0

# System: OVCAR4
# Assay: as above
# Conditions: exposure time: 72 h; concentration range: 5 concentrations over 10,000-fold range
# Method in brief: as §1
row,SMILES,drug sensitivity score
1,CC(C)(C)C[C@@H]1N[C@@H](C(=O)N[C@H]2CC[C@H](O)CC2)[C@H](c2cccc(Cl)c2F)[C@]12C(=O)Nc1cc(Cl)ccc12,0.1
2,CC(C)Oc1ccc(C(=O)N[C@H](CNC(=O)CN(C)C)Cc2ccc(-c3cn4cccc([C@H](C)O)c4n3)cc2)cc1Cl,4.2
3,CC[C@@H]1[C@H](F)C(=O)N[C@@H]1COc1nccc2cc(C(N)=O)c(OC)cc12,0.4
4,CCc1cncnc1N1CCN(Cc2nc3ccc(C(F)(F)F)cc3[nH]2)CC1,2.3
5,CCn1c(-c2nonc2N)nc2cnc(Oc3cccc(NC(=O)c4ccc(OCCN5CCOCC5)cc4)c3)cc21,0.6
6,CN(C)CC#Cc1ccc(OCCCc2sc(N3CCc4cccc(C(=O)Nc5nc6ccccc6s5)c4C3)nc2C(=O)O)c(F)c1,3.5
7,CN(c1ncccc1CNc1nc(Nc2ccc3c(c2)CC(=O)N3)ncc1C(F)(F)F)S(C)(=O)=O,4.7
8,CNC(=O)c1ccc(C)c(-n2c(C)cc(OCc3ccc(F)cc3F)c(Br)c2=O)c1,0
9,CNS(=O)(=O)Nc1nccc(Cc2c(C)c3ccc(Oc4ncccn4)cc3oc2=O)c1F,1.7
10,CNc1ncc2cc(-c3cc(NC(=O)NCCC(C)(C)C)c(F)cc3C)c(C)nc2n1,3.7
11,CO[C@@H](C)Cn1c(=O)n(C)c2cnc3ccc(-c4cncc(C(C)(C)O)c4)cc3c21,9.8
12,COc1ccc(Cn2ccc3ccc(C(=O)NO)cc32)cc1,3.6
13,C[C@@H](Oc1ccc2[nH]nc(/C=C/c3cnn(CCO)c3)c2c1)c1c(Cl)cncc1Cl,2.5
14,C[C@@H]1CN(CC(=O)Nc2ccc3c(c2)Cc2cccc(-c4cc(=O)cc(N5CCOCC5)o4)c2S3)C[C@H](C)O1,0.7
15,C[C@H]1C[C@@H](n2c(Nc3ccc(OC(F)(F)F)cc3)nc3cc(CCC(=O)O)ccc32)CC(C)(C)C1,0
16,Cc1c(-c2c(-c3ccc(F)o3)sc3ncnc(O[C@H](Cc4ccccc4OCc4ccnn4CC(F)(F)F)C(=O)O)c23)ccc(OCCN2CCN(C)CC2)c1Cl,0.6

row,SMILES,drug sensitivity score
1,Cc1c(Cn2c(C)nc3c(C(=O)O)cc(N4CCOCC4)cc32)cccc1C(F)(F)F,0
2,Cc1ccc(C(=O)N(CCCN)[C@@H](c2oc3cc(Cl)ccc3c(=O)c2Cc2ccccc2)C(C)C)cc1,3.4
3,Cc1cccc(CC(=O)N2CCc3c2ccc(-c2cn(C)c4ncnc(N)c24)c3F)n1,1.1
4,Cc1nc(Nc2n[nH]c3c2CN(C(=O)N[C@H](CN(C)C)c2ccccc2)C3(C)C)c2sccc2n1,10.2
5,Cc1ncc(Cl)cc1NCc1ccc(C(=O)N[C@@H](CC2CCCC2)C(=O)NC2CC2)s1,0
6,Cn1cc(-c2ccc(F)c(C(F)(F)F)c2)nc1C1CCN(c2ncnc3[nH]ncc23)CC1,0
7,Cn1cc(C2=Nc3cc(NC(=O)C(N)C4CCCCC4)cc4c3C2=CNNC4=O)cn1 (stereo unspecified),15.4
8,N#Cc1ccc(COC[C@H]2O[C@@H](n3c(NCc4ccc(Cl)c(Cl)c4)nc4c(N)ncnc43)[C@H](O)[C@@H]2O)cc1,0.3
9,NCC(=O)Nc1ccc(-n2nc(C(F)(F)F)cc2-c2ccc3c(ccc4ccccc43)c2)cc1,0
10,NC[C@@](O)(c1ccc(Cl)cc1)c1ccc(-c2cn[nH]c2)cc1,1.1
11,Nc1nccc(-c2c(-c3ccc(F)cc3)ncn2C2CCCCC2)n1,0
12,Nc1ncnc2c1c(COc1cccc(Cl)c1)nn2C1CCOCC1,0
13,O=C(NOC[C@H](O)CO)c1ccc(F)c(F)c1Nc1ccc(I)cc1F,2.1
14,O=C(Nc1ccc2[nH]nc(-c3ccncc3)c2c1)[C@@H]1CCN(CC(=O)N2CCN(c3ccc(-c4ncccn4)cc3)CC2)C1,1.7
15,O=C(O)c1ccc(-c2c[nH]c3ncc(-c4ccccc4)cc23)cc1C1CCCC1,0
16,O=C(O)c1ccc(CN2CCC(CN[C@@H]3C[C@H]3c3ccccc3)CC2)cc1,0.3

# System: JHOS2
# Assay: as above
# Conditions: exposure time: 72 h; concentration range: 5 concentrations over 10,000-fold range
# Method in brief: as §1
row,SMILES,drug sensitivity score
1,CC(C)(C)C[C@@H]1N[C@@H](C(=O)N[C@H]2CC[C@H](O)CC2)[C@H](c2cccc(Cl)c2F)[C@]12C(=O)Nc1cc(Cl)ccc12,0
2,CC(C)Oc1ccc(C(=O)N[C@H](CNC(=O)CN(C)C)Cc2ccc(-c3cn4cccc([C@H](C)O)c4n3)cc2)cc1Cl,7.2
3,CC[C@@H]1[C@H](F)C(=O)N[C@@H]1COc1nccc2cc(C(N)=O)c(OC)cc12,1.3
4,CCc1cncnc1N1CCN(Cc2nc3ccc(C(F)(F)F)cc3[nH]2)CC1,0.8
5,CCn1c(-c2nonc2N)nc2cnc(Oc3cccc(NC(=O)c4ccc(OCCN5CCOCC5)cc4)c3)cc21,2.8
6,CN(C)CC#Cc1ccc(OCCCc2sc(N3CCc4cccc(C(=O)Nc5nc6ccccc6s5)c4C3)nc2C(=O)O)c(F)c1,1.2
7,CN(c1ncccc1CNc1nc(Nc2ccc3c(c2)CC(=O)N3)ncc1C(F)(F)F)S(C)(=O)=O,5.1
8,CNC(=O)c1ccc(C)c(-n2c(C)cc(OCc3ccc(F)cc3F)c(Br)c2=O)c1,0
9,CNS(=O)(=O)Nc1nccc(Cc2c(C)c3ccc(Oc4ncccn4)cc3oc2=O)c1F,0
10,CNc1ncc2cc(-c3cc(NC(=O)NCCC(C)(C)C)c(F)cc3C)c(C)nc2n1,10.3
11,CO[C@@H](C)Cn1c(=O)n(C)c2cnc3ccc(-c4cncc(C(C)(C)O)c4)cc3c21,7.8
12,COc1ccc(Cn2ccc3ccc(C(=O)NO)cc32)cc1,0.1
13,C[C@@H](Oc1ccc2[nH]nc(/C=C/c3cnn(CCO)c3)c2c1)c1c(Cl)cncc1Cl,2
14,C[C@@H]1CN(CC(=O)Nc2ccc3c(c2)Cc2cccc(-c4cc(=O)cc(N5CCOCC5)o4)c2S3)C[C@H](C)O1,0
15,C[C@H]1C[C@@H](n2c(Nc3ccc(OC(F)(F)F)cc3)nc3cc(CCC(=O)O)ccc32)CC(C)(C)C1,0
16,Cc1c(-c2c(-c3ccc(F)o3)sc3ncnc(O[C@H](Cc4ccccc4OCc4ccnn4CC(F)(F)F)C(=O)O)c23)ccc(OCCN2CCN(C)CC2)c1Cl,0

row,SMILES,drug sensitivity score
1,Cc1c(Cn2c(C)nc3c(C(=O)O)cc(N4CCOCC4)cc32)cccc1C(F)(F)F,0
2,Cc1ccc(C(=O)N(CCCN)[C@@H](c2oc3cc(Cl)ccc3c(=O)c2Cc2ccccc2)C(C)C)cc1,4.8
3,Cc1cccc(CC(=O)N2CCc3c2ccc(-c2cn(C)c4ncnc(N)c24)c3F)n1,0
4,Cc1nc(Nc2n[nH]c3c2CN(C(=O)N[C@H](CN(C)C)c2ccccc2)C3(C)C)c2sccc2n1,10.6
5,Cc1ncc(Cl)cc1NCc1ccc(C(=O)N[C@@H](CC2CCCC2)C(=O)NC2CC2)s1,0
6,Cn1cc(-c2ccc(F)c(C(F)(F)F)c2)nc1C1CCN(c2ncnc3[nH]ncc23)CC1,0
7,Cn1cc(C2=Nc3cc(NC(=O)C(N)C4CCCCC4)cc4c3C2=CNNC4=O)cn1 (stereo unspecified),5.1
8,N#Cc1ccc(COC[C@H]2O[C@@H](n3c(NCc4ccc(Cl)c(Cl)c4)nc4c(N)ncnc43)[C@H](O)[C@@H]2O)cc1,1
9,NCC(=O)Nc1ccc(-n2nc(C(F)(F)F)cc2-c2ccc3c(ccc4ccccc43)c2)cc1,1.5
10,NC[C@@](O)(c1ccc(Cl)cc1)c1ccc(-c2cn[nH]c2)cc1,2.8
11,Nc1nccc(-c2c(-c3ccc(F)cc3)ncn2C2CCCCC2)n1,0
12,Nc1ncnc2c1c(COc1cccc(Cl)c1)nn2C1CCOCC1,0
13,O=C(NOC[C@H](O)CO)c1ccc(F)c(F)c1Nc1ccc(I)cc1F,3.2
14,O=C(Nc1ccc2[nH]nc(-c3ccncc3)c2c1)[C@@H]1CCN(CC(=O)N2CCN(c3ccc(-c4ncccn4)cc3)CC2)C1,8.4
15,O=C(O)c1ccc(-c2c[nH]c3ncc(-c4ccccc4)cc23)cc1C1CCCC1,0
16,O=C(O)c1ccc(CN2CCC(CN[C@@H]3C[C@H]3c3ccccc3)CC2)cc1,0
